Experimental data as given in patent publication US20230099204A1, “PHARMACEUTICAL COMPOSITION FOR PREVENTION OR TREATMENT OF CANCER IN WHICH KRAS MUTATION AND ACTIVATED RON ARE PRESENT” (WELLMARKER BIO CO., LTD., priority 2020, published 2023).

How the values were obtained:
[1] = tested on: SW620; assay: Cell death induction, trypan blue cell counting, SW620; format: cell-based, human; conditions: 1 μM, 48 hours
Description: Based on the results above, to identify the cell death-inducing ability of the compounds of Example 1 and positive control 1, which are representative materials, preparation was performed by seeding respective colorectal cancer cell lines SNU-[…], HCT8, T84, and SW620 onto 60-mm plates at 3×10^5 cells, and then incubation was performed for 24 hours. Thereafter, treatment with each of Example 1 and positive control 1 was performed at 1μM and incubation was performed for 48 hours. In addition, preparation was performed by seeding the cell line SW620 onto a 60-mm plate at 3×10^5 cells, and then incubation was performed for 24 hours. Thereafter, treatment with each of Example 1, positive control 1, positive control 2, and positive control 3 was performed at 1 μM. After 48 hours, the cells and cell suspensions were collected by treatment with trypsin, resuspended in 1× PBS and stained using a trypan blue solution (Sigma, cat# T8154). The stained cells were counted using a hemocytometer. Cell counting was repeated, and the mean and the standard deviation were calculated.

[2] = tested on: HCT15; assay: MTS assay, cytotoxicity on colorectal cancer cell line HCT15; format: cell-based; conditions: Homo sapiens, HCT-15, RON Δ160, KRAS G13D, 72 hours
Description: MTS assay was performed to compare cytotoxicity of the compounds of Example 1, Example 2, Example 3, Example 4, Example 5, Example 6, and positive control 1 on a colorectal cancer cell line, and a cell death rate of the colorectal cancer cell line was analyzed to compare anticancer activity of the compounds.
The MTS assay was performed by seeding each colorectal cell line in a 96-well plate at 1,000 cells per well, and after 24 hours, performing treatment with the compounds of Examples 1 to 6 and positive control 1 at various concentrations (0.000001 μM to 10 μM) in 100 μL of 10% FBS-RPMI medium (WELGENE Inc.) per well. The cells were incubated for 72 hours. Then, 20 μL of MTS solution (Promega) was added thereto, and the cells were incubated for 2 hours. Then, the absorbance was measured at 490 nm. The IC50 values for the compounds of Examples 1 to 6 and positive control 1 were calculated using GraphPad Prism™ 5 to investigate cytotoxicity.

[3] = tested on: HCT8 (KRAS G13D/pTyr-wtRON(+)); assay: Cell line HCT8-transplanted mouse model; format: in vivo, BALB/c nude mice
Description: 5-Week-old female BALB/c nude mice were purchased and acclimatized for 1 week. Then, human colorectal cancer patient-derived cell line SW620 (KRAS
G12V/mRON Δ155) at 5×10^6 cells/mouse was injected subcutaneously (100 μL) into the right dorsal side of the mice. The compound of Example 1 was orally administered when the tumor reached a size of about 100 mm^3. The drug was administered once a day for 4 weeks, and tumor size and mouse body weight were measured twice a week. After completion of the drug administration, the experimental animals were euthanized, and then the tumors were extracted and weighed for comparative analysis.
A portion of the extracted tumor tissue was fixed in 10% formalin and processed into a paraffin block. Then, the block was made into sections. Staining of the slide was performed through immunochemical staining. Another portion of the extracted tumor tissue was subjected to lysis, and then Western blotting was used to identify changes in expression of respective proteins.
The experiment was conducted in the same method as the procedure of Experimental Example 3, except that human colorectal cancer patient-derived cell line HCT8 (KRAS G13D/pTyr-wtRON(+)) was used in place of the human colorectal cancer patient-derived cell line SW620 (KRAS G12V/mRON Δ155), and the respective compounds of Example 1, positive control 1, and positive control 2 were administered.

CCOc1ccn(-c2ccc(F)cc2)c(=O)c1C(=O)Nc1ccc(Oc2ccnc3cc(-c4ccc(CN5CCOCC5)cn4)sc23)c(F)c1.Cl [Example 1, 4-ethoxy-N-[3-fluoro-4-({2-[5-(morpholinomethyl)pyridine-2-yl]thieno[3,2-b]pyridine-7-yl}oxy)phenyl]-1-(4-fluorophenyl)-2-oxo-1,2-dihydropyridine-3-carboxamide hydrochloride]
cell death rate ([1]; SW620 (KRAS G12V/mRON Δ155), FIG. 2): high cell death rate | cell death induction efficacy ([1]; SW620 with a RON mutation, FIG. 1): cell death induction efficacy was exhibited regardless of mutation type | IC50 [2]: 230 nM | Tumor growth inhibition (TGI, %) ([3]; 10 mg/kg, oral, once a day for 4 weeks): 58.5 ± 9.1% | tumor growth inhibitory efficacy ([3]; compared with positive control 1 and positive control 2, FIG. 8): high tumor growth inhibitory efficacy
